Results from patent US6737383B1, “Herbicidal oxadiazolidines” (priority 1999, dated 2004).

Experiments:
duck salad = assay: Test B flood test duck salad; format: in vivo, Heteranthera limosa
How it was run: (§1)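 Plants were grown to the 2-leaf stage before treatment with test chemical, then held in a greenhouse for twelve to sixteen days. Injury was visually rated against untreated controls on a 0–10 scale, where 0 is no effect and 10 is complete control.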

pigweed = assay: Test B pre/postemergence pigweed; format: in vivo, Amaranthus retroflexus
How it was run: (§2)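 Test chemicals in a non-phytotoxic solvent mixture with surfactant were sprayed preemergence onto planted seeds and postemergence onto plants 2 to 18 cm tall (1- to 4-leaf stage). After twelve to sixteen days in a greenhouse, injury was visually rated against untreated controls from 0 (no effect) to 10 (complete control).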

rice = assay: Test B flood test rice; format: in vivo, Oryza sativa
How it was run: as §1

wild oat = assay: Test B pre/postemergence wild oat; format: in vivo, Avena fatua; settings: for Plant response rating, Wild oats: Rate 250 g/ha
How it was run: as §2

cocklebur = assay: Test B pre/postemergence cocklebur; format: in vivo, Xanthium strumarium
How it was run: as §2

surinam grass = assay: Test B pre/postemergence surinam grass; format: in vivo, Brachiaria decumbens
How it was run: as §2

bedstraw = assay: Test B pre/postemergence bedstraw; format: in vivo, Galium aparine; settings: for Bedstraw plant response rating: Postemergence; for Plant response rating, Bedstraw: Preemergence
How it was run: as §2

bamyardgrass = assay: Test B flood test barnyardgrass; format: in vivo, Echinochloa crus-galli
How it was run: as §1

sugar beet = assay: Test B pre/postemergence sugar beet; format: in vivo, Beta vulgaris; settings: for Plant response rating, Sugarbeets: Rate 250 g/ha
How it was run: as §2

velvetleaf = assay: Test B pre/postemergence velvetleaf; format: in vivo, Abutilon theophrasti; settings: for Plant response rating, Velvetleaf: Rate 250 g/ha
How it was run: as §2

soybean = assay: Test B pre/postemergence soybean; format: in vivo, Glycine max
How it was run: as §2

smallflower flatsedge = assay: Test B flood test smallflower flatsedge; format: in vivo, Cyperus difformis
How it was run: as §1

rape = assay: Test B pre/postemergence rape; format: in vivo, Brassica napus
How it was run: as §2

crabgrass = assay: Test B pre/postemergence crabgrass; format: in vivo, Digitaria sanguinalis
How it was run: as §2

corn = assay: Test B pre/postemergence corn; format: in vivo, Zea mays
How it was run: as §2

morningglory = assay: Test B pre/postemergence morningglory; format: in vivo, Ipomoea hederacea
How it was run: as §2

[1] = Postemergence (flood test species), Rate 125 g/ha, scale of 0 to 10 where 0 is no effect and 10 is complete control
[2] = Postemergence, Rate 62 g/ha, scale 0 to 10, 0 is no effect, 10 is complete control
[3] = Rate 500 g/ha, listed under Postemergence (flood test species), scale 0 to 10, 0 no effect, 10 complete control
[4] = flood test, listed under Postemergence, Rate 250 g/ha, scale 0 to 10, 0 no effect, 10 complete control
[5] = Postemergence, Rate 125 g/ha, scale of 0 to 10 where 0 is no effect and 10 is complete control
[6] = Preemergence, Rate 62 g/ha, scale 0 to 10 (0 no effect, 10 complete control)
[7] = Preemergence, Rate 250 g/ha, scale of 0 to 10 where 0 is no effect and 10 is complete control
[8] = Preemergence, Rate 500 g/ha, scale 0 (no effect) to 10 (complete control)
[9] = Rate 500 g/ha, Postemergence, scale 0 to 10, 0 no effect, 10 complete control
[10] = Rate 250 g/ha, Postemergence (flood test), scale 0 to 10, 0 is no effect, 10 is complete control
[11] = Preemergence, Rate 125 g/ha, 0 is no effect, 10 is complete control
[12] = Preemergence, scale of 0 to 10 where 0 is no effect and 10 is complete control
[13] = Postemergence, scale 0 to 10, 0 is no effect, 10 is complete control
[14] = Postemergence, Rate 250 g/ha, scale 0 to 10, 0 no effect, 10 complete control
[15] = Preemergence, Rate 125 g/ha, scale 0 to 10 (0 no effect, 10 complete control)

CC(C)N(C(=O)n1oc(=O)n(-c2cnn(C)c2Cl)c1=O)c1ccc(F)cc1 [Compound 97]
Ducksalad plant response rating (duck salad; [1]): 0 | Ducksalad plant response rating (duck salad; [2]): 0 | Ducksalad plant response rating (duck salad; [3]): 2 | Ducksalad plant response rating (duck salad; [4]): 2 | Redroot pigweed plant response rating (pigweed; [2]): 0 | Redroot pigweed plant response rating (pigweed; [5]): 0 | Redroot pigweed plant response rating (pigweed; [6]): 0 | Plant response rating, Redroot pigweed (pigweed; [7]): 4 | Redroot pigweed plant response rating (pigweed; [8]): 10 | Redroot pigweed plant response rating (pigweed; [9]): 5 | Rice plant response rating (rice; [1]): 0 | Rice plant response rating (rice; [2]): 0 | Plant response rating, Rice (rice; [10]): 0 | Rice plant response rating (rice; [3]): 3 | Wild oats plant response rating (wild oat; [2]): 0 | Wild oats plant response rating (wild oat; [5]): 0 | Wild oats plant response rating (wild oat; [6]): 0 | Wild oats plant response rating (0 to 10 scale) (wild oat; [11]): 2 | Plant response rating, Wild oats (wild oat; [12]): 2 | Wild oats plant response rating (wild oat; [8]): 5 | Plant response rating, Wild oats (wild oat; [13]): 0 | Wild oats plant response rating (wild oat; [9]): 0 | Cocklebur plant response rating (cocklebur; [2]): 0 | Cocklebur plant response rating (cocklebur; [5]): 0 | Cocklebur plant response rating (cocklebur; [14]): 1 | Cocklebur plant response rating (cocklebur; [6]): 0 | Plant response rating, Cocklebur (cocklebur; [15]): 0 | Plant response rating, Cocklebur (cocklebur; [7]): 0 | Cocklebur plant response rating (cocklebur; [8]): 0 | Cocklebur plant response rating (cocklebur; [9]): 1 | B. signalgrass plant response rating (surinam grass; [2]): 0 | B. signalgrass plant response rating (surinam grass; [14]): 0 | B. signalgrass plant response rating (surinam grass; [6]): 0 | Plant response rating, B. signalgrass (surinam grass; [15]): 2 | Plant response rating, B. signalgrass (surinam grass; [7]): 3 | B. signalgrass plant response rating (surinam grass; [8]): 4 | B. signalgrass plant response rating (surinam grass; Rate 125 g/ha, Postemergence, scale 0 to 10, 0 no effect, 10 complete control): 0 | B. signalgrass plant response rating (surinam grass; Rate 500 g/ha, Postemergence, scale of 0 to 10 where 0 is no effect and 10 is complete control): 0 | Bedstraw plant response rating (bedstraw; Rate 62 g/ha, scale 0 to 10, 0 is no effect, 10 is complete control): 0 | Bedstraw plant response rating (bedstraw; Rate 250 g/ha, scale 0 to 10, 0 no effect, 10 complete control): 1 | Plant response rating, Bedstraw (bedstraw; Rate 125 g/ha, scale 0 to 10 (0 no effect, 10 complete control)): 0 | Plant response rating, Bedstraw (bedstraw; Rate 250 g/ha, scale of 0 to 10 where 0 is no effect and 10 is complete control): 0 | Bedstraw plant response rating (bedstraw; Rate 125 g/ha, scale 0 to 10, 0 no effect, 10 complete control): 0 | Bedstraw plant response rating (bedstraw; Rate 500 g/ha, scale 0 to 10, 0 no effect, 10 complete control): 3 | Barnyardgrass plant response rating (bamyardgrass; [2]): 0 | Barnyardgrass plant response rating (bamyardgrass; Rate 125 g/ha, Postemergence section (flood test species), scale 0 to 10, 0 no effect, 10 complete control): 0 | Barnyardgrass plant response rating (bamyardgrass; [3]): 0 | Barnyardgrass plant response rating (bamyardgrass; [4]): 0 | Sugarbeets plant response rating (sugar beet; [2]): 0 | Sugarbeets plant response rating (sugar beet; [5]): 0 | Sugarbeets plant response rating (sugar beet; [6]): 0 | Sugarbeets plant response rating (0 to 10 scale) (sugar beet; [11]): 3 | Plant response rating, Sugarbeets (sugar beet; [12]): 5 | Sugarbeets plant response rating (sugar beet; [8]): 9 | Plant response rating, Sugarbeets (sugar beet; [13]): 0 | Sugarbeets plant response rating (sugar beet; [9]): 0 | Velvetleaf plant response rating (velvetleaf; [2]): 0 | Velvetleaf plant response rating (velvetleaf; [5]): 0 | Velvetleaf plant response rating (velvetleaf; [6]): 0 | Velvetleaf plant response rating (0 to 10 scale) (velvetleaf; [11]): 0 | Plant response rating, Velvetleaf (velvetleaf; [12]): 0 | Velvetleaf plant response rating (velvetleaf; [8]): 0 | Plant response rating, Velvetleaf (velvetleaf; [13]): 2 | Velvetleaf plant response rating (velvetleaf; [9]): 3 | Soybean plant response rating (soybean; [2]): 0 | Soybean plant response rating (soybean; [5]): 0 | Soybean plant response rating (soybean; [6]): 0 | Plant response rating, Soybean (soybean; [15]): 0 | Plant response rating, Soybean (soybean; [7]): 0 | Soybean plant response rating (soybean; [8]): 2 | Plant response rating, Soybean (soybean; Rate 250 g/ha, Postemergence, scale 0 to 10, 0 is no effect, 10 is complete control): 1 | Soybean plant response rating (soybean; [9]): 2 | S. Flatsedge plant response rating (smallflower flatsedge; [1]): 0 | S. Flatsedge plant response rating (smallflower flatsedge; [2]): 0 | Plant response rating, S. Flatsedge (smallflower flatsedge; [10]): 0 | S. Flatsedge plant response rating (smallflower flatsedge; [3]): 2 | Rape plant response rating (rape; [2]): 0 | Rape plant response rating (rape; [5]): 0 | Rape plant response rating (rape; [14]): 0 | Rape plant response rating (rape; [6]): 0 | Plant response rating, Rape (rape; [15]): 0 | Plant response rating, Rape (rape; [7]): 5 | Rape plant response rating (rape; [8]): 6 | Rape plant response rating (rape; [9]): 3 | Crabgrass plant response rating (crabgrass; [2]): 0 | Crabgrass plant response rating (crabgrass; [5]): 2 | Crabgrass plant response rating (crabgrass; [14]): 4 | Crabgrass plant response rating (crabgrass; [6]): 0 | Plant response rating, Crabgrass (crabgrass; [15]): 0 | Plant response rating, Crabgrass (crabgrass; [7]): 1 | Crabgrass plant response rating (crabgrass; [8]): 4 | Corn plant response rating (corn; [2]): 0 | Corn plant response rating (corn; [5]): 0 | Corn plant response rating (corn; [14]): 0 | Corn plant response rating (corn; [6]): 0 | Plant response rating, Corn (corn; [15]): 0 | Plant response rating, Corn (corn; [7]): 0 | Corn plant response rating (corn; [8]): 0 | Corn plant response rating (corn; [9]): 0 | Morningglory plant response rating (morningglory; [2]): 1 | Morningglory plant response rating (morningglory; [5]): 1 | Morningglory plant response rating (morningglory; [14]): 3 | Morningglory plant response rating (morningglory; [6]): 0 | Plant response rating, Morningglory (morningglory; [15]): 0 | Plant response rating, Morningglory (morningglory; [7]): 0 | Morningglory plant response rating (morningglory; [8]): 0 | Morningglory plant response rating (morningglory; [9]): 3
